Measurements from patent publication US10882857B2, “Bicyclic compounds as ATX inhibitors” (Hoffmann-La Roche Inc., priority 2017, dated 2021).

Molecular target: ATX (human His-tagged) (Homo sapiens (Human), UniProt Q13822)
Assay: Human ATX enzyme inhibition assay (fluorescence quenching, MR121 substrate)
Assay type: biochemical
Details: 30 nM ATX, 1 μM MR121 substrate, 30° C.
Procedure: Human ATX Enzyme Inhibition Assay
ATX inhibition was measured by a fluorescence quenching assay using a specifically labeled substrate analogue (MR121 substrate). To obtain this MR121 substrate, BOC and TBS protected 6-amino-hexanoic acid (R)-3-({2-[3-(2-{2-[2-(2-amino-ethoxy)-ethoxy]-ethoxy-}ethoxy)-propionylamino]-ethoxy}-hydroxy-phosphoryloxy)-2-hydroxy-propyl ester (Ferguson et al., Org Lett 2006, 8 (10), 2023) was labeled with MR121 fluorophore (CAS 185308-24-1, 1-(3-carboxypropyl)-11-ethyl-1,2,3,4,8,9,10,11-octahydro-dipyrido[3,2-b:2′,3′-i]phenoxazin-13-ium) on the free amine of the ethanolamine side and then, after deprotection, subsequently with tryptophan on the side of the aminohexanoic acid.
Assay working solutions were made as follows:
Assay buffer (50 mM Tris-HCl, 140 mM NaCl, 5 mM KCl, 1 mM CaCl2, 1 mM MgCl2, 0.01% Triton-X-100, pH 8.0;
ATX solution: ATX (human His-tagged) stock solution (1.08 mg/mL in 20 mM bicine, pH 8.5, 0.15 M NaCl, 10% glycerol, 0.3% CHAPS, 0.02% NaN3), diluted to 1.4-2.5× final concentration in assay buffer;
MR121 substrate solution: MR121 substrate stock solution (800 μM MR121 substrate in DMSO), diluted to 2-5× final concentration in assay buffer.
Test compounds (10 mM stock in DMSO, 8 μL) were obtained in 384 well sample plates (Corning Costar #3655) and diluted with 8 μL DMSO. Row-wise serial dilutions were made by transferring 8 μL cpd solution to the next row up to row O. The compound and control solutions were mixed five times and 2 μL were transferred to 384 well assay plates (Corning Costar #3702). Then, 15 μL of 41.7 nM ATX solution was added (30 nM final concentration), mixed five times and then incubated for 15 minutes at 30° C. 10 μL of MR121 substrate solution was added (1 μM final concentration), mixed 30 times and then incubated for 15 minutes at 30° C.
Fluorescence was then measured every 2 minutes for 1 hour (Perkin Elmer plate: vision multimode reader); light intensity: 2.5%; exp. time: 1.4 sec, Filter: Fluo_630/690 nm) and IC50 values were calculated from these readouts.

| SMILES | IC50 [nM] |
| --- | --- |
| O=C(c1cc(OCC2CCOCC2)nc(C2CC2)c1)N1CCc2cc(C(=O)N3CCc4[nH]nnc4C3)ccc2C1 [Example 1, [2-[2-Cyclopropyl-6-(oxan-4-ylmethoxy)pyridine-4-carbonyl]-3,4-dihydro-1H-isoquinolin-6-yl]-(1,4,6,7-tetrahydrotriazolo[4,5-c]pyridin-5-yl)methanone] | 2 |
| O=C(c1cc(OCC2CCOCC2)nc(C2CC2)c1)N1Cc2nc(C(=O)N3CCc4[nH]nnc4C3)oc2C1 [Example 1.01, [2-cyclopropyl-6-(oxan-4-ylmethoxy)pyridin-4-yl]-[2-(1,4,6,7-tetrahydrotriazolo[4,5-c]pyridine-5-carbonyl)-4,6-dihydropyrrolo[3,4-d][1,3]oxazol-5-yl]methanone] | 2 |
| O=C(c1cc(OCC2CCOCC2)nc(C2CC2)c1)N1Cc2ccc(C(=O)N3CCc4c(O)noc4C3)cc2C1 [Example 2, [2-[2-Cyclopropyl-6-(oxan-4-ylmethoxy)pyridine-4-carbonyl]-1,3-dihydroisoindol-5-yl]-(3-hydroxy-5,7-dihydro-4H-[1,2]oxazolo[5,4-c]pyridin-6-yl)methanone] | 24 |
| NS(=O)(=O)C1CCN(C(=O)c2ccc3c(c2)CN(C(=O)c2cc(OCC4CCOCC4)nc(C4CC4)c2)C3)CC1 [Example 2.01, 1-[2-[2-cyclopropyl-6-(oxan-4-ylmethoxy)pyridine-4-carbonyl]-1,3-dihydroisoindole-5-carbonyl]piperidine-4-sulfonamide] | 10 |
| CC(C)(C)C(=O)Nc1cc(C(F)(F)F)cnc1COC(=O)N1Cc2ccc(C(=O)N3CCc4c(O)noc4C3)cc2C1 [Example 2.04, [3-(2,2-dimethylpropanoylamino)-5-(trifluoromethyl)pyridin-2-yl]methyl 5-(3-hydroxy-5,7-dihydro-4H-[1,2]oxazolo[5,4-c]pyridine-6-carbonyl)-1,3-dihydroisoindole-2-carboxylate] | 7 |
| CC(C)(C)C(=O)Nc1cc(C(F)(F)F)cnc1COC(=O)N1Cc2ccc(C(=O)N3CCc4onc(O)c4C3)cc2C1 [Example 2.05, [3-(2,2-dimethylpropanoylamino)-5-(trifluoromethyl)pyridin-2-yl]methyl 5-(3-hydroxy-6,7-dihydro-4H-[1,2]oxazolo[4,5-c]pyridine-5-carbonyl)-1,3-dihydroisoindole-2-carboxylate] | 4 |
| O=C(c1cc(OCC2CCOCC2)nc(C2CC2)c1)N1Cc2nc(C(=O)N3CCc4c(O)noc4C3)oc2C1 [Example 3, [2-Cyclopropyl-6-(oxan-4-ylmethoxy)pyridin-4-yl]-[2-(3-hydroxy-5,7-dihydro-4H-[1,2]oxazolo[5,4-c]pyridine-6-carbonyl)-4,6-dihydropyrrolo[3,4-d][1,3]oxazol-5-yl]methanone] | 5 |
| CC(C)(C)C(=O)Nc1cc(C#N)c(Cl)cc1COC(=O)N1Cc2nc(C(=O)N3CCc4c(O)noc4C3)oc2C1 [Example 4.01, [5-chloro-4-cyano-2-(2,2-dimethylpropanoylamino)phenyl]methyl 2-(3-hydroxy-5,7-dihydro-4H-[1,2]oxazolo[5,4-c]pyridine-6-carbonyl)-4,6-dihydropyrrolo[3,4-d][1,3]oxazole-5-carboxylate] | 7 |

Second part, the compound after the results:

| IC50 [nM] | SMILES |
| --- | --- |
| 7 | O=C(c1cc(OCC2CCOCC2)nc(C2CC2)c1)N1Cc2ccc(C(=O)N3CCc4onc(O)c4C3)cc2C1 [Example 2.02, [2-[2-cyclopropyl-6-(oxan-4-ylmethoxy)pyridine-4-carbonyl]-1,3-dihydroisoindol-5-yl]-(3-hydroxy-6,7-dihydro-4H-[1,2]oxazolo[4,5-c]pyridin-5-yl)methanone] |
| 7 | CC(C)(C)C(=O)Nc1cc(C(F)(F)F)cnc1COC(=O)N1Cc2ccc(C(=O)N3CCC(S(N)(=O)=O)CC3)cc2C1 [Example 2.03, [3-(2,2-dimethylpropanoylamino)-5-(trifluoromethyl)pyridin-2-yl]methyl 5-(4-sulfamoylpiperidine-1-carbonyl)-1,3-dihydroisoindole-2-carboxylate] |
| 1 | CC(C)(C)C(=O)Nc1cc(C(F)(F)F)cnc1COC(=O)N1Cc2nc(C(=O)N3CCC(S(N)(=O)=O)CC3)oc2C1 [Example 2.06, [3-(2,2-dimethylpropanoylamino)-5-(trifluoromethyl)pyridin-2-yl]methyl 2-(4-sulfamoylpiperidine-1-carbonyl)-4,6-dihydropyrrolo[3,4-d][1,3]oxazole-5-carboxylate] |
| 2 | NS(=O)(=O)C1CCN(C(=O)c2nc3c(s2)CN(C(=O)c2cc(OCC4CCOCC4)nc(C4CC4)c2)C3)CC1 [Example 3.01, 1-[5-[2-cyclopropyl-6-(oxan-4-ylmethoxy)pyridine-4-carbonyl]-4,6-dihydropyrrolo[3,4-d][1,3]thiazole-2-carbonyl]piperidine-4-sulfonamide] |
| 7 | NS(=O)(=O)C1CCN(C(=O)c2cc3c(s2)CN(C(=O)c2cc(OCC4CCOCC4)nc(C4CC4)c2)C3)CC1 [Example 3.02, 1-[5-[2-cyclopropyl-6-(oxan-4-ylmethoxy)pyridine-4-carbonyl]-4,6-dihydrothieno[2,3-c]pyrrole-2-carbonyl]piperidine-4-sulfonamide] |
| 1 | CC(C)(C)C(=O)Nc1cc(C(F)(F)F)cnc1COC(=O)N1Cc2nc(C(=O)N3CCc4[nH]nnc4C3)oc2C1 [Example 4, [3-(2,2-Dimethylpropanoylamino)-5-(trifluoromethyl)pyridin-2-yl]methyl 2-(1,4,6,7-tetrahydrotriazolo[4,5-c]pyridine-5-carbonyl)-4,6-dihydropyrrolo[3,4-d][1,3]oxazole-5-carboxylate] |
| 1 | CC(C)(C)C(=O)Nc1cc(C(F)(F)F)cnc1COC(=O)N1Cc2cc(C(=O)N3CCC(S(N)(=O)=O)CC3)sc2C1 [Example 4.02, [3-(2,2-Dimethylpropanoylamino)-5-(trifluoromethyl)pyridin-2-yl]methyl 2-(4-sulfamoylpiperidine-1-carbonyl)-4,6-dihydrothieno[2,3-c]pyrrole-5-carboxylate] |
